# ChEMBL document CHEMBL3045221, “A 2D image-based approach for modelling some glycogen synthase kinase 3 inhibitors” (Med Chem Res, 2007)
# Target: Glycogen synthase kinase-3 beta (Homo sapiens, UniProt P49841)
# Format: cell-based, Sf9
# Description: Inhibition of GSK3beta (unknown origin) expressed in Sf9 cells using GS1 as substrate and [gamma32]ATP after 30 min by scinitllation counting
# Chain of Glycogen synthase kinase-3 beta (P49841 whole entry): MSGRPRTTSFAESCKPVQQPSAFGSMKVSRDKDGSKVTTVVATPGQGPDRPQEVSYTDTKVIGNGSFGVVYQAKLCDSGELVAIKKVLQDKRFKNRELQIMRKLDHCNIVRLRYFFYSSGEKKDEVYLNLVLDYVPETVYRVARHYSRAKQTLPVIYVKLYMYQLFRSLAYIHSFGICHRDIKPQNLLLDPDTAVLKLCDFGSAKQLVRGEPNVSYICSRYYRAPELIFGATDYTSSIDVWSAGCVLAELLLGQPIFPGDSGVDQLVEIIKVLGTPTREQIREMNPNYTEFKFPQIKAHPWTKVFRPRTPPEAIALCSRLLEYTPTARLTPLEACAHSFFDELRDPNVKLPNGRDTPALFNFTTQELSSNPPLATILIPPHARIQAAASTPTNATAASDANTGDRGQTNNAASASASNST
IC50 [nM],Ki [nM],Compound
–,12,COc1ccc(Nc2nccc(-c3cnn4ncccc34)n2)cc1OC [PYRAZOLOPYRIDAZINE 2]
0.708,–,O=C1NC(=O)C(c2cnc3cccnn23)=C1c1cn2c3c(cccc13)CN(C(=O)N1CCCCC1)CC2 [BISARYLMALEIMIDE 1]
5.01,–,O=C1Nc2ccc(Br)cc2/C1=C1/Nc2ccccc2/C1=N\O [INDIRUBIN 2]
3.98,–,CN1CCN(c2cnc(NCCNc3ccc([N+](=O)[O-])c(N)n3)nc2-c2ccc(Cl)cc2Cl)C(=O)C1

# Further lines, the compound ahead of its results:
Compound,IC50 [nM],Ki [nM]
CN(C)CCNC(=O)c1ccc(/C=N/Nc2ncnc3c2cnn3-c2cccc3[nH]cnc23)cc1 [PYRAZOLOPYRIMIDINE 1],1.58,–
CC(=O)O/N=C1/C(=C2/C(=O)Nc3cc(Cl)c(Cl)cc32)Nc2ccccc21 [INDIRUBIN 1],3.98,–
CC(=O)NC1=NC(=O)/C(=C2\CCNC(=O)c3c2cc(Br)n3C(C)=O)N1 [HYMENIALDISINE 2],129,–
O=C1NC(=O)C(c2cncc3ccoc23)=C1c1cn2c3c(cccc13)CN(C(=O)N1CCOCC1)CC2 [BISARYLMALEIMIDE 2],0.794,–
O=C1NC(=O)C2=C1c1cn(c3ccccc13)CCOCCOCCOCCn1cc2c2ccccc21 [INDOLYLYLMALEIMIDE 2],21.9,–
